Test results taken from paper PMC9137726, “Thioredoxin Reductase-Type Ferredoxin: NADP^+ Oxidoreductase of Rhodopseudomonas palustris: Potentiometric Characteristics and Reactions with Nonphysiological Oxidants” (Antioxidants, 2022).

Target: T1, RpFNR (R. palustris TrxR-type FNR) (Rhodopseudomonas palustris, UniProt Q6N2U4)
T1 construct: gene RPA3954; domains span residues 2-344
Experiment: steady-state spectrophotometric NADPH:juglone reductase inhibition
Type: biochemical
Conditions: read-out: Kis

T1 sequence (Q6N2U4 whole entry, the tested form may be a part): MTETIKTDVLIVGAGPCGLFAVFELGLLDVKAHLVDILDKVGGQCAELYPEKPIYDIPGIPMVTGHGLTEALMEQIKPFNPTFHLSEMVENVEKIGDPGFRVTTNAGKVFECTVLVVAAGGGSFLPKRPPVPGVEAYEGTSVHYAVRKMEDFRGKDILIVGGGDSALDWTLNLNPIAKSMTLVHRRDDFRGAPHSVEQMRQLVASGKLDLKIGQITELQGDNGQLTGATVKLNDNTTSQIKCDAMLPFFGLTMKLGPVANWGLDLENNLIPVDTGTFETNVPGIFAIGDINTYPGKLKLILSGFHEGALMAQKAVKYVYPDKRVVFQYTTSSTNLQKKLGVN

Ki: 150 ± 10 µM
SMILES: NC(=O)c1ccc[n+]([C@@H]2O[C@H](COP(=O)(O)OP(=O)(O)OC[C@H]3O[C@@H](n4cnc5c(N)ncnc54)[C@H](OP(=O)(O)O)[C@@H]3O)[C@@H](O)[C@H]2O)c1 [NADP^+]
